The subject of this experiment is alopecia in mice. The experiment in a line: Animal experiment: therapeutic effect on alopecia in bilaterally ovariectomized mice after oral administration. The experiment is classed as in vivo. The note with it: for Cured / Ineffective / Ameliorated: number of mice of 10 per group; for Cured / Ineffective / Ameliorated / cure rate / Total effective rate (%) / back hair of mice after administration (FIGS. 3, 8 and 9): ovariectomized female mice, oral 10 mg/kg/day, 4 weeks; for Cured: cured = no difference with the normal group; for Ineffective: no difference from the model group; for Ameliorated: significant difference from the model group; for cure rate / Total effective rate (%): 10 mice per group; for back hair of mice after administration (FIGS. 3, 8 and 9): compared with the normal group (FIG. 1); for promoting hair follicle growth: summary statement. The procedure: Experiment method: 100 8-week-old female mice were divided into 10 groups with 10 mice in each group. They were randomly divided into a normal group, a model group and administration groups. The mice in the model group and the administration groups were fasted overnight and subjected to bilateral ovariectomy after anesthesia with 0.1 ml of 10% chloral hydrate. After the bilateral ovariectomy, penicillin injection 0.1 ml/per mouse was injected once a day for seven times to prevent infection. After 4 weeks of modeling, the experiment was carried out by oral administration. The medicament was prepared with normal saline, and administered 10 mg/kg/day to each mouse in the administration groups. The normal group and model group were given only normal saline. After 4 weeks of administration, the hair on the back of the mice was observed.
Cured: Alopecia was completely cured, with no difference with the normal group.
Ameliorated: Alopecia was ameliorated, with significant difference from the model group, but small difference from the normal group.
Ineffective: Alopecia was not ameliorated, with no difference from the model group.

`CC(=O)/C(=N\Nc1ccccc1C(=O)O)C(=O)Nc1ccccc1` [Compound 24] returned a Cured of 10, an Ineffective of 0, an Ameliorated of 0 and a cure rate of 100%. In addition, the “back hair of mice after administration (FIGS. 3, 8 and 9)” value is given as “completely recovered”; the “promoting hair follicle growth” value is reported as “significant advantages”. The “Total effective rate (%)” value (10 mg/kg/day) is recorded as 100%.

Regarding `CC(=O)/C(=N\Nc1ccccc1C(=O)O)C(=O)Nc1cccc(O)n1` [Compound 30], the Cured came out at 4, the Ineffective came out at 3, the Ameliorated worked out at 3 and the “Total effective rate (%)” value worked out at 70%.

Turning to `CCOC(=O)c1sc(NC(=O)/C(=N/Nc2c(C#N)cccc2C(=O)O)C(C)=O)nc1C` [Compound 12], the Cured was 8, the Ineffective stood at 1, the Ameliorated amounted to 1 and the “Total effective rate (%)” value was determined as 90%.

Take `CCOC(=O)c1sc(NC(=O)/C(=N/Nc2ccc(F)cc2C(=O)O)C(C)=O)nc1C` [Compound 10]: the Cured came to 2, the Ineffective was determined as 5, the Ameliorated was determined as 3 and the “Total effective rate (%)” value was determined as 50%.

As to `CC(=O)/C(=N\Nc1ccccc1C(=O)O)C(=O)N1CCOCC1` [Compound 28], the Cured is given as 10, the Ineffective amounted to 0, the Ameliorated came out at 0 and the cure rate is 100%. Moreover, the “back hair of mice after administration (FIGS. 3, 8 and 9)” value is “completely recovered”; the “promoting hair follicle growth” value is on record as “significant advantages”. Moreover, the “Total effective rate (%)” value (10 mg/kg/day) worked out at 100%.

Turning to `CCOC(=O)c1sc(NC(=O)/C(=N/Nc2ccccc2C(=O)OC)C(C)=O)nc1C` [Compound 4], the Cured worked out at 8, the Ineffective turned out to be 0, the Ameliorated was found to be 2 and the “promoting hair follicle growth” value was “significant advantages”. The “Total effective rate (%)” value (10 mg/kg/day) was determined as 100%.

(Values after patent US12479809B2, “Hydrazone amide derivative and application thereof in preparation of medicaments for preventing and treating alopecia” (SHENZHEN CELL INSPIRE PHARMACEUTICAL DEVELOPMENT CO., LTD., priority 2019, dated 2025).)
